Reference: patent US7560229B2, “Methods of use of the enzymes of mycothiol synthesis” (priority 2002, dated 2009)
Converted amounts (≈) assume the structure as drawn. Where two headings read alike, the source gives them in different places.

Key:
[1] = test system: M. smegmatis transposon mutant Tn1 (MshC deficient); assay type: cell-based; conditions: Tn1, from MIC
Procedure: (§1) To test this hypothesis, Tn1, Tn2, and I64 were grown on PBT plates supplemented with increasing amounts of the alkylating agents mBBr, iodoacetamide, and 1-chloro-2,4-dinitrobenzene (CDNB). The alkylating agents were poured into the molten agar.

[2] = test system: M. smegmatis transposon mutant Tn2 (MshC deficient); assay type: cell-based; conditions: Tn2, from MIC
Procedure: as §1

[3] = test system: M. smegmatis chemical mutant I64 (MshC deficient); assay type: cell-based; conditions: I64, from MIC
Procedure: as §1

[4] = molecular target: M. smegmatis Cys:GlcN-Ins ligase (MshC) (Mycolicibacterium smegmatis, UniProt A0QZY0); assay: ATP-dependent Cys:GlcN-Ins ligase assay, substrate kinetics; conditions: [ATP]=1 mM, [Cys]=100 μM
Procedure: (§4) A minor modification of the protocol described by Anderberg et al (supra) was used for routine measurement of ATP-dependent ligase activity. The enzyme activity was assayed in a final volume of 25 μL containing 12.5 μL of the ligase in different dilutions, 50 μM GlcN-Ins, 100 μM Cys (Calbiochem), 1 mM ATP (Sigma), 1 mM MgCl2 (Fisher), 1 mM DTT (Calbiochem), 25 mM N-2-hydroxyethylpiperazine-N′-2-ethanesulfonic acid (HEPES) (Sigma), pH 7.5, and 35 μM each of the protease inhibitors (Sigma) N-α-p-tosyl-L-phenylalanylchloromethyl ketone and N-α-p-tosyl-L-lysinechloromethyl ketone. The mixture was incubated at 37° C. for 30 min. The assay was terminated by addition of 25 μL of 8 mM mBBr in acetonitrile and heating the mixture at 60° C. for 5 min to derivatize the thiols. The derivatization was quenched with the addition of 150 μl of 10 mM methanesulfonic acid and vortexing. HPLC analysis of CySmB-GlcN-Ins and CySmB was carried out by HPLC using a Beckman Ultrasphere IP (250×4.6 mm) analytical column fitted with a Brownley OD-GU 5 μ C-18 cartridge using the following linear gradients: 0 min., 100% A (0.1% TFA in water); 10 min, 100% A; 30 min, 80% A; 33 min, 100% B (7.5% methanol in acetonitrile); 36 min, 100% B; 38 min, 100% A; 60 min, 100% A (reinjection). The flow rate was 1 mL/min. and the fluorescence detection was accomplished with a 370 nm excitation filter and a 418-700 nm emission filter. The Vmax and Km values were calculated by least-squares analysis of Eadie-Hofstee plots with initial rate data using KaleidaGraph 3.5 (Synergy Software).

M. smegmatis mutant I64 [5] = assay: Antibiotic sensitivity test (MIC); assay type: cell-based
[6] = test system: M. smegmatis parent strain mc^2155; assay: Isoniazid MIC by Estrip; assay type: cell-based; conditions: Mycolicibacterium smegmatis; mc^2155, Estrip, 2-3 days at 37° C.
[7] = test system: M. smegmatis transposon mutant mshA::Tn5; assay: Isoniazid MIC by Estrip; assay type: cell-based; conditions: Mycolicibacterium smegmatis
[8] = test system: M. smegmatis chemical mutant 49; assay: Isoniazid MIC by Estrip; assay type: cell-based; conditions: Mycolicibacterium smegmatis
[9] = test system: M. smegmatis complemented mshA::Tn5 (mshA::Tn5 pAL0486); assay: Isoniazid MIC by Estrip; assay type: cell-based; conditions: Mycolicibacterium smegmatis
[10] = test system: M. smegmatis complemented strain 49 (49::pAL0486); assay: Isoniazid MIC by Estrip; assay type: cell-based; conditions: Mycolicibacterium smegmatis
M. smegmatis mc^2155 = conditions: mc^2155, plating on antibiotic containing media, found earlier; cited from earlier work
M. smegmatis mutant 49 = conditions: cited from earlier work
[11] = test system: M. smegmatis mc^2155 (wild type); assay: Disk assay, redox cycling agents, zone of inhibition; assay type: cell-based
Procedure: (§2) To determine sensitivity to redox cycling agents, disk assays were performed. Briefly, cells were grown to mid-log phase and a lawn of cells was plated onto PBT or LB plates supplemented with appropriate antibiotics. Various amounts of redox-cycling agents plumbagin, and […] menadione and nitrofurantoin were added to the disk in 10 μl volume and allowed to dry. The disks were placed onto the lawn of cells and incubated 2-3 days.

M. smegmatis mutant I64 [12] = assay type: cell-based
Procedure: as §2

M. smegmatis mutant Tn1 [13] = assay type: cell-based
Procedure: as §2

M. smegmatis mutant Tn2 [14] = assay type: cell-based
Procedure: as §2

[15] = test system: M. smegmatis mc^2155 (wild type)
Procedure: (§3) Peroxide sensitivity was determined by incubating cells (2.5×10^7 per ml) at 37° C. in Middlebrook 7H9 medium with 0.4% glucose and 0.05% TWEEN® 80 containing hydrogen peroxide at the desired level for 2 hours with shaking. Cells were diluted in fresh medium and plated on 7H10 agar. Colonies were counted when they achieved a diameter of 1-2 mm, which required 4-5 days for the wild type strain and up to 10 days for MSH-deficient mutant strains.

M. smegmatis mutant I64 [16] = conditions: I64, FIG. 6
Procedure: as §3

M. smegmatis mutant Tn1 [17] = test system: M. smegmatis mutant Tn1
Procedure: as §3

M. smegmatis mutant Tn2 [18] = test system: M. smegmatis mutant Tn2
Procedure: as §3

N[C@@H](CS)C(=O)O = assay: purified protein, by the assay type; conditions: other: [ATP]=1 mM, [GlcN-Ins]=300 μM, Cys 5-400 μM; pH 7.5
Procedure: as §4

Sequence of M. smegmatis Cys:GlcN-Ins ligase (MshC) (A0QZY0 whole entry): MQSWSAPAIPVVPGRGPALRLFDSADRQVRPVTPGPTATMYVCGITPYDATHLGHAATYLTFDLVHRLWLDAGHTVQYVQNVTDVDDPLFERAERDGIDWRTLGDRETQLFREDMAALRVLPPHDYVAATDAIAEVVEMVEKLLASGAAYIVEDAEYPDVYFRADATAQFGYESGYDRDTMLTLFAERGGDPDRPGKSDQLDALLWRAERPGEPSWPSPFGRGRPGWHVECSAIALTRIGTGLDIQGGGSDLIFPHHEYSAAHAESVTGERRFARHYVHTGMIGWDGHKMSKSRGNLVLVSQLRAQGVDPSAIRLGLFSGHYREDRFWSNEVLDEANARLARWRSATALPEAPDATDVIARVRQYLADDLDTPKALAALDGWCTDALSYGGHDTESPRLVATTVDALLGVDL

O=[N+]([O-])c1ccc(Cl)c([N+](=O)[O-])c1 [CDNB, 1-chloro-2,4-dinitrobenzene]
increase in sensitivity compared to wild type mc^2155 [1]: 2-3 fold
increase in sensitivity compared to wild type mc^2155 [2]: 2-3 fold

CN(C)C(=O)/N=N/C(=O)N(C)C [Diamide, diamide]
increase in sensitivity compared to wild type mc^2155 [3]: doubled
increase in sensitivity compared to wild type mc^2155 [1]: greater than 10 fold
increase in sensitivity compared to wild type mc^2155 [2]: greater than 10 fold

N[C@H]1[C@@H](OC2[C@H](O)[C@H](O)C(O)[C@H](O)[C@H]2O)O[C@H](CO)[C@@H](O)[C@@H]1O (stereo partly drawn) [GlcN-Ins, 1D-myo-inosityl 2-amino-2-deoxy-α-D-glucopyranoside]
Vmax (GlcN-Ins varied) [4]: 90 ± 7 nmol/min/mg
Km ([4]; read-out: apparent Km for GlcN-Ins, GlcN-Ins 5-600 μM): 72 ± 9 µM

NC(=O)CI [Iodoacetamide, iodoacetamide]
increase in sensitivity compared to wild type mc^2155 [3]: two-fold
increase in sensitivity compared to wild type mc^2155 [1]: two-fold
increase in sensitivity compared to wild type mc^2155 [2]: 5 fold

NNC(=O)c1ccncc1 [Isoniazid, isoniazid]
fold greater resistance than the wild type (M. smegmatis mutant I64 [5]): 16 fold
MIC [6]: 1 µg/mL (≈ 7.29 µM)
MIC [7]: > 250 µg/mL
MIC [8]: > 250 µg/mL
MIC [9]: 2.7 µg/mL (≈ 19.7 µM)
MIC [10]: 28 µg/mL (≈ 204 µM)
MIC (M. smegmatis mc^2155): 2 µg/mL (≈ 14.6 µM)
MIC (M. smegmatis mutant 49; mutant 49, plating on antibiotic containing media, found earlier): > 50 µg/mL
isoniazid concentration to which strain 49 is resistant (M. smegmatis mutant 49; strain 49 (Newton et al. 1999)): 100 μg isoniazid/ml

CC1=CC(=O)c2ccccc2C1=O [Menadione, menadione]
Zone of Inhibition ([11]; 0.1 μmol agent on disk): 9.7 ± 0.3 mm
Zone of Inhibition ([11]; 0.5 μmol agent on disk): 19.7 ± 0.9 mm
Zone of Inhibition (M. smegmatis mutant I64 [12]; I64, 0.1 μmol agent on disk): 8.7 ± 0.7 mm
Zone of Inhibition (M. smegmatis mutant I64 [12]; I64, 0.5 μmol agent on disk): 26.7 ± 0.9 mm
Zone of Inhibition (M. smegmatis mutant Tn1 [13]; Tn1, 0.1 μmol agent on disk): 20.7 ± 3.8 mm
Zone of Inhibition (M. smegmatis mutant Tn1 [13]; Tn1, 0.5 μmol agent on disk): 31.3 ± 1.3 mm
Zone of Inhibition (M. smegmatis mutant Tn2 [14]; Tn2, 0.1 μmol agent on disk): 15.3 ± 2.0 mm
Zone of Inhibition (M. smegmatis mutant Tn2 [14]; Tn2, 0.5 μmol agent on disk): 16.4 ± 1.9 mm

O=C1CN(/N=C/c2ccc([N+](=O)[O-])o2)C(=O)N1 [Nitrofurantoin, nitrofurantoin]
Zone of Inhibition ([11]; 0.5 μmol agent on disk): 4.7 ± 0.3 mm
Zone of Inhibition ([11]; 1.0 μmol agent on disk): 6.0 ± 0.6 mm
Zone of Inhibition (M. smegmatis mutant I64 [12]; I64, 0.5 μmol agent on disk): 5.0 ± 0.6 mm
Zone of Inhibition (M. smegmatis mutant I64 [12]; I64, 1.0 μmol agent on disk): 8.7 ± 0.3 mm
Zone of Inhibition (M. smegmatis mutant Tn1 [13]; Tn1, 0.5 μmol agent on disk): 10.7 ± 2.6 mm
Zone of Inhibition (M. smegmatis mutant Tn1 [13]; Tn1, 1.0 μmol agent on disk): 14.0 ± 2.7 mm
Zone of Inhibition (M. smegmatis mutant Tn2 [14]; Tn2, 1.0 μmol agent on disk): 35.0 ± 3.6 mm

CC1=CC(=O)c2c(O)cccc2C1=O [Plumbagin, plumbagin]
Zone of Inhibition ([11]; 0.005 μmol agent on disk): 11.0 ± 1.0 mm
Zone of Inhibition ([11]; 0.01 μmol agent on disk): 13.5 ± 0.5 mm
Zone of Inhibition (M. smegmatis mutant I64 [12]; I64, 0.005 μmol agent on disk): 9.3 ± 0.9 mm
Zone of Inhibition (M. smegmatis mutant I64 [12]; I64, 0.01 μmol agent on disk): 13.3 ± 1.9 mm
Zone of Inhibition (M. smegmatis mutant Tn1 [13]; Tn1, 0.005 μmol agent on disk): 17.0 ± 0.6 mm
Zone of Inhibition (M. smegmatis mutant Tn1 [13]; Tn1, 0.01 μmol agent on disk): 23.0 ± 1.2 mm
Zone of Inhibition (M. smegmatis mutant Tn2 [14]; Tn2, 0.005 μmol agent on disk): 15.0 ± 0.0 mm
Zone of Inhibition (M. smegmatis mutant Tn2 [14]; Tn2, 0.01 μmol agent on disk): 23.0 ± 1.0 mm

OO [hydrogen peroxide]
H2O2 concentration at which the strain can survive [15]: 10 mM
tolerance to peroxide stress (M. smegmatis mutant I64 [16]): intermediate between wild type mc^2155 and the transposon mutants
H2O2 concentration the strain is unable to tolerate (M. smegmatis mutant Tn1 [17]; Tn1, 2 hours at 37° C., FIG. 6): ≤ 1 MM
times more sensitive to hydrogen peroxide than the wild type strain (M. smegmatis mutant Tn1 [17]; Tn1, FIG. 6): about 10 times
H2O2 concentration the strain is unable to tolerate (M. smegmatis mutant Tn2 [18]; Tn2, 2 hours at 37° C., FIG. 6): ≤ 1 MM
times more sensitive to hydrogen peroxide than the wild type strain (M. smegmatis mutant Tn2 [18]; Tn2, FIG. 6): about 10 times

Cc1c(C)n2c(CBr)c(C)c(=O)n2c1=O [mBBr, monobromobimane]
increase in sensitivity compared to wild type mc^2155 [3]: more susceptible
increase in sensitivity compared to wild type mc^2155 [1]: 4 fold
increase in sensitivity compared to wild type mc^2155 [2]: 4 fold

M. smegmatis Cys:GlcN-Ins ligase (MshC) (Mycolicibacterium smegmatis MC2 155)
Km (N[C@@H](CS)C(=O)O): 40 ± 3 µM
Vmax (N[C@@H](CS)C(=O)O): 83 ± 3 nmol/min/mg
